Source: patent publication US20080292736A1, “Bioavailability enhancing activity of carum carvi extracts and fractions thereof” (COUNCIL OF SCIENTIFIC AND INDUSTRIAL RESEARCH, priority 2001, published 2008)

Assay: Enhancement of bioavailability of drugs given to rats with bioenhancers (plasma drug level by HPLC)
Conditions: for % Enhancement in bioavailability, BE from Carum carvi: drug with Carum carvi bioenhancer (aqueous or 50% alcoholic extract 30 mg/kg or Fraction No. 1 15 mg/kg), drug dose mg/kg; for % Enhancement in bioavailability, Carum carvi + Zingiber officinale: drug with Carum carvi bioenhancer and Zingiber officinale 35 mg/kg; for % Enhancement in bioavailability, Carum carvi + Zingiber officinale / % Enhancement in bioavailability, Carum carvi + Piperine / % Enhancement in bioavailability, BE from Zingiber officinale / % Enhancement in bioavailability, Piperine as BE: drug dose as in row; for % Enhancement in bioavailability, Carum carvi + Piperine: drug with Carum carvi bioenhancer and piperine 8 mg/kg; for % Enhancement in bioavailability, BE from Zingiber officinale: drug with Zingiber officinale 50% alcoholic extract of fresh ginger 35 mg/kg; for % Enhancement in bioavailability, Piperine as BE: drug with piperine 8 mg/kg; for % Enhancement in bioavailability, Carum carvi (Cc) Frac 1.: nutraceutical with Carum carvi Fraction No. 1 15 mg/kg; for % Enhancement in bioavailability, Carum carvi + Zingiber officinale, Frac 1. (Cc): nutraceutical with Carum carvi Fraction No. 1 and Zingiber officinale; for % Enhancement in bioavailability, Carum carvi + piperine, Frac 1. (Cc): nutraceutical with Carum carvi Fraction No. 1 and piperine; for % Enhancement in bioavailability, Carum carvi (Cc) Extr.: nutraceutical with Carum carvi extract 30 mg/kg; for % Enhancement in bioavailability, Carum carvi + Zingiber officinale, Extr. (Cc): nutraceutical with Carum carvi extract and Zingiber officinale; for % Enhancement in bioavailability, Carum carvi + piperine, Extr. (Cc): nutraceutical with Carum carvi extract and piperine

| % Enhancement in bioavailability, BE from Carum carvi | % Enhancement in bioavailability, Carum carvi + Zingiber officinale | % Enhancement in bioavailability, Carum carvi + Piperine | % Enhancement in bioavailability, BE from Zingiber officinale | % Enhancement in bioavailability, Piperine as BE | % Enhancement in bioavailability, Carum carvi (Cc) Frac 1. | % Enhancement in bioavailability, Carum carvi + Zingiber officinale, Frac 1. (Cc) | % Enhancement in bioavailability, Carum carvi + piperine, Frac 1. (Cc) | % Enhancement in bioavailability, Carum carvi (Cc) Extr. | % Enhancement in bioavailability, Carum carvi + Zingiber officinale, Extr. (Cc) | % Enhancement in bioavailability, Carum carvi + piperine, Extr. (Cc) | Compound |
| --- | --- | --- | --- | --- | --- | --- | --- | --- | --- | --- | --- |
| 75% | 80% | 70% | Nil | nil | – | – | – | – | – | – | CS(=O)(=O)c1ccc(C2=C(c3ccccc3)C(=O)OC2)cc1 [Rofecoxib] |
| 90% | 100% | 110% | 110% | 87% | – | – | – | – | – | – | O=c1[nH]cc(F)c(=O)[nH]1 [5-Fluorouracil] |
| 79% | 90% | 95% | 76% | 85% | – | – | – | – | – | – | NCCCC[C@H](N[C@@H](CCc1ccccc1)C(=O)O)C(=O)N1CCC[C@H]1C(=O)O [Lisinopril] |
| 100% | 145% | 140% | 144% | 132% | – | – | – | – | – | – | CS(=O)(=O)Nc1ccc([N+](=O)[O-])cc1Oc1ccccc1 [Nimesulide] |
| 75% | 100% | 115% | 80% | 120% | – | – | – | – | – | – | CC1(C)S[C@@H]2[C@H](NC(=O)[C@H](N)c3ccc(O)cc3)C(=O)N2[C@H]1C(=O)O [Amoxycillin] |
| Nil | 69% | 70% | 72% | 68% | – | – | – | – | – | – | COc1cccc2c1C(=O)c1c(O)c3c(c(O)c1C2=O)C[C@@](O)(C(=O)CO)C[C@@H]3O[C@H]1C[C@H](N)[C@H](O)[C@H](C)O1 [Dauxorubicin] |
| 56% | 68% | 67% | 46% | 34% | – | – | – | – | – | – | Nc1ccc(S(=O)(=O)c2ccc(N)cc2)cc1 [Dapsone] |
| – | – | – | 31% | 17% | 42% | 55% | 26% | 37% | 43% | 21% | Cc1ncc(C[n+]2csc(CCO)c2C)c(N)n1 [Vit B 1] |
| – | – | – | 23% | 11% | 28% | 37% | 30% | 20% | 30% | 25% | CSCC[C@H](N)C(=O)O [Methionine] |
| 89% | 130% | 95% | 35% | 60% | – | – | – | – | – | – | C=CC1=C(C(=O)O)N2C(=O)[C@@H](NC(=O)/C(=N\O)c3csc(N)n3)[C@H]2SC1 [Cefidinir] |
| Nil | 71% | 70% | 67% | 67% | – | – | – | – | – | – | CN(Cc1cc(Br)cc(Br)c1N)C1CCCCC1 [Bromhexine] |
| 75% | 80% | 89% | 78% | 60% | – | – | – | – | – | – | CC(C)(C)NCC(O)c1ccc(O)c(CO)c1 (centres unmarked) [Salbutamol] |
| 92% | 87% | 95% | 105% | 140% | – | – | – | – | – | – | Cc1cn([C@H]2C[C@H](N=[N+]=[N-])[C@@H](CO)O2)c(=O)[nH]c1=O [Zidovudine] |
| 70% | 89% | 79% | 76% | 65% | – | – | – | – | – | – | Cn1c(=O)c2[nH]cnc2n(C)c1=O [Theophylline] |
| 68% | 75% | 90% | 76% | 84% | – | – | – | – | – | – | CC(C)NCC(O)COc1cccc2ccccc12 (centres unmarked) [Propranolol] |
| – | – | – | nil | nil | Nil | Nil | Nil | nil | Nil | nil | [K+] [Potassium] |
| – | – | – | Nil | Nil | nil | Nil | Nil | Nil | Nil | Nil | Vit B 12 |
| – | – | – | Nil | Nil | Nil | Nil | Nil | Nil | Nil | Nil | Vit E |
| – | – | – | Nil | Nil | Nil | Nil | Nil | nil | Nil | Nil | Cc1ncc(CO)c(CO)c1O [Vit B 6] |
| 95% | 85% | 90% | Nil | nil | – | – | – | – | – | – | O=C(CCCN1CCC(O)(c2ccc(Cl)cc2)CC1)c1ccc(F)cc1 [Haloperidol] |
| Nil | nil | nil | Nil | nil | – | – | – | – | – | – | COc1c(C)c2c(c(O)c1C/C=C(\C)CCC(=O)OCCN1CCOCC1)C(=O)OC2 [Mycophenolate Mofeit] |
| 72% | 75% | 78% | Nil | Nil | – | – | – | – | – | – | CO/N=C(\C(=O)N[C@@H]1C(=O)N2C(C(=O)O)=C(CSc3nc(=O)c(O)nn3C)CS[C@H]12)c1csc(N)n1 [Cefetrioxone] |

| Compound | % Enhancement in bioavailability, BE from Carum carvi | % Enhancement in bioavailability, Carum carvi + Zingiber officinale | % Enhancement in bioavailability, Carum carvi + Piperine | % Enhancement in bioavailability, BE from Zingiber officinale | % Enhancement in bioavailability, Piperine as BE | % Enhancement in bioavailability, Carum carvi (Cc) Frac 1. | % Enhancement in bioavailability, Carum carvi + Zingiber officinale, Frac 1. (Cc) | % Enhancement in bioavailability, Carum carvi + piperine, Frac 1. (Cc) | % Enhancement in bioavailability, Carum carvi (Cc) Extr. | % Enhancement in bioavailability, Carum carvi + Zingiber officinale, Extr. (Cc) | % Enhancement in bioavailability, Carum carvi + piperine, Extr. (Cc) |
| --- | --- | --- | --- | --- | --- | --- | --- | --- | --- | --- | --- |
| [Ca+2] [Calcium] | – | – | – | nil | nil | Nil | Nil | Nil | nil | Nil | nil |
| [Zn] [Zinc] | – | – | – | nil | nil | Nil | Nil | Nil | nil | Nil | nil |
| C[C@@H]1[C@H](O)[C@@H](C)/C=C/C=C/C=C/C=C/C=C/C=C/C=C/[C@H](O[C@@H]2O[C@H](C)[C@@H](O)[C@H](N)[C@@H]2O)C[C@@H]2O[C@](O)(C[C@@H](O)C[C@@H](O)[C@H](O)CC[C@@H](O)C[C@@H](O)CC(=O)O[C@H]1C)C[C@H](O)[C@H]2C(=O)O [Amphotericin B] | 78% | 80% | 90% | Nil | nil | – | – | – | – | – | – |
